Experiments:
[1] = Inhibition of bovine brain tubulin polymerization after 20 mins; set-up: species or system Bos taurus
MCF7 [2] = assay: Cytotoxicity against human MCF7 cells after 48 hrs by MTT assay; type: functional, cell-based; conditions: MCF7, 48 h
MCF7 [3] = assay: Cell cycle arrest in human MCF7 cells assessed as accumulation at G2/M phase at 250 nM after 24 hrs by flow cytometry; type: functional
MCF7 [4] = assay: Cell cycle arrest in human MCF7 cells assessed as accumulation at G1 phase at 250 nM after 24 hrs by flow cytometry; type: functional
MCF7 [5] = assay: Cell cycle arrest in human MCF7 cells assessed as accumulation at G1 phase at 25 nM after 24 hrs by flow cytometry; type: functional
MCF7 [6] = assay: Cell cycle arrest in human MCF7 cells assessed as accumulation at S phase at 250 nM after 24 hrs by flow cytometry; type: functional
MCF7 [7] = assay: Cell cycle arrest in human MCF7 cells assessed as accumulation at S phase at 25 nM after 24 hrs by flow cytometry; type: functional
MCF7 [8] = assay: Cell cycle arrest in human MCF7 cells assessed as accumulation at G2/M phase at 25 nM after 24 hrs by flow cytometry; type: functional

IC50 [1] | Structure (SMILES) | IC50 (MCF7 [2]) | further results
130 µM | CCN(CC)C(=S)SC(CC(=O)c1ccccc1)c1ccccc1 (configuration not stated) | 17 µM | –
6.8 µM | CCN(CC)C(=S)SC(CC(=O)c1ccc(Cl)cc1)c1ccccc1 (configuration not stated) | 0.04 µM | Activity (MCF7 [3]): 39.54%; Activity (MCF7 [4]): 12.86%; Activity (MCF7 [5]): 50.86%; Activity (MCF7 [6]): 12.22%; Activity (MCF7 [7]): 16.28%; Activity (MCF7 [8]): 19.99%
250 µM | CCN(CC)C(=S)SC(CC(C)=O)c1ccccc1 (configuration not stated) | 23 µM | –
80 µM | CCN(CC)C(=S)SC(CC(=O)c1ccccc1)c1ccc(F)cc1 (configuration not stated) | 0.7 µM | –
220 µM | CCN(CC)C(=S)SC(CC(=O)c1ccccc1)c1ccc(C)cc1 (configuration not stated) | 20 µM | –
15 µM | CCN(CC)C(=S)SC(CC(=O)c1ccccc1)c1ccc(Cl)cc1 (configuration not stated) | 0.12 µM | –
12 µM | CCN(CC)C(=S)SC(CC(=O)c1ccccc1)c1ccc(Br)cc1 (configuration not stated) | 0.08 µM | –
10 µM | CCN(CC)C(=S)SC(CC(=O)c1ccc(OC)cc1)c1ccccc1Cl (configuration not stated) | 0.07 µM | –
180 µM | CCN(CC)C(=S)SC(CC(=O)c1ccc(OC)cc1)c1ccc(C)cc1 (configuration not stated) | 17 µM | –
18 µM | CCN(CC)C(=S)SC(CC(=O)c1ccc(Br)cc1)c1ccc(F)cc1 (configuration not stated) | 1 µM | –
84 µM | CCN(CC)C(=S)SC(CC(=O)c1ccc(OC)cc1)c1ccc(OC)cc1 (configuration not stated) | 0.8 µM | –
52 µM | CCN(CC)C(=S)SC(CC(=O)c1ccccc1)c1ccccc1Cl (configuration not stated) | 4.5 µM | –
90 µM | CCN(CC)C(=S)SC(CC(=O)c1ccccc1)c1cccc([N+](=O)[O-])c1 (configuration not stated) | 9 µM | –
65 µM | CCN(CC)C(=S)SC(CC(=O)c1ccc(Br)cc1)c1ccccc1 (configuration not stated) | 5 µM | –
60 µM | CCN(CC)C(=S)SC(CC(=O)c1ccc(Cl)c(Cl)c1)c1ccccc1 (configuration not stated) | 4.5 µM | –
140 µM | CCN(CC)C(=S)SC(CC(=O)c1ccc(OC)cc1)c1ccc(Cl)cc1 (configuration not stated) | 16 µM | –
45 µM | CCN(CC)C(=S)SC(CC(=O)c1ccccc1)c1ccc(OC)cc1 (configuration not stated) | 4.6 µM | –
150 µM | CCN(CC)C(=S)SC(CC(=O)c1ccccc1)c1ccccc1OC (configuration not stated) | 16 µM | –
52 µM | CCN(CC)C(=S)SC(CC(=O)c1ccc(Br)cc1)c1ccc(OC)cc1 (configuration not stated) | 5 µM | –
62 µM | CCN(CC)C(=S)SC(CC(=O)c1ccc(OC)cc1)c1ccccc1 (configuration not stated) | 4.5 µM | –

Structure (SMILES) | IC50 [1] | IC50 (MCF7 [2]) | further results
COc1cc2c(c(OC)c1OC)-c1ccc(OC)c(=O)cc1[C@@H](NC(C)=O)CC2 [COLCHICINE] | 3.2 µM | 0.017 µM | Activity (MCF7 [5]): 24.31%; Activity (MCF7 [7]): 15.96%; Activity (MCF7 [8]): 32.28%
COc1ccc(/C=C\c2cc(OC)c(OC)c(OC)c2)cc1O [COMBRETASTATIN A4] | 2.2 µM | – | –
